Assay results as given in ChEMBL document CHEMBL1268898, “Metallocene catalyzed synthesis of fungistatic vicinal aminoalcohols under solvent free conditions” (2010).

Experiments:
[1] = system: Botrytis cinerea; test: Fungistatic activity against Botrytis cinerea assessed as inhibition of fungal growth at 100 mg/L relative to control; assay type: functional; settings: read-out: GI
[2] = system: Colletotrichum gloeosporioides; test: Fungistatic activity against Colletotrichum gloeosporioides assessed as inhibition of fungal growth at 100 mg/L relative to control; assay type: functional; settings: read-out: GI

SMILES	inhibition of growth at 100 µg/mL [1] [%]	inhibition of growth at 100 µg/mL [2] [%]
Cc1ccc(NCC(C)(C)O)cc1	62	< 30
Cc1ccc(NCC(O)COc2ccccc2)cc1 (stereo unspecified)	87	72
Cc1ccc(NC(CO)c2ccccc2)cc1 (stereo unspecified)	63	40
CN(C)S(=O)(=O)N(SC(F)(Cl)Cl)c1ccccc1 [DICHLOFLUANID]	> 95	
Cc1ccc(N(CC(O)COc2ccccc2)CC(O)COc2ccccc2)cc1 (stereo unspecified)	53	< 30
O=[N+]([O-])c1ccc(NC(CO)c2ccccc2)cc1 (stereo unspecified)	69	55
